# Reference: ChEMBL document CHEMBL1151793, “Synthesis, biological active molecular design, and molecular docking study of novel deazaflavin-cholestane hybrid compounds” (Bioorg Med Chem, 2008)
# Legend:
# CCRF-HSB-2 = assay: Antitumor activity against human CCRF-HSB2 cells by MTT assay; format: functional, cell-based
# KB = assay: Antitumor activity against human KB cells by MTT assay; format: functional, cell-based
IC50 (CCRF-HSB-2),IC50 (KB),SMILES
4.7 µg/mL,7.8 µg/mL,CCCCCCCC[C@H]1CC[C@H]2[C@@H]3CCC4=Cc5c(cc6c(=O)[nH]c(=O)nc-6n5-c5ccc(C)c(C)c5)C[C@]4(C)[C@H]3CC[C@]12C
5.4 µg/mL,7.4 µg/mL,CCCCCCCC[C@H]1CC[C@H]2[C@@H]3CCC4=Cc5c(cc6c(=O)n(C)c(=O)nc-6n5-c5cccc(C)c5)C[C@]4(C)[C@H]3CC[C@]12C
36.8 µg/mL,40.9 µg/mL,CCCCCCCC[C@H]1CC[C@H]2[C@@H]3CCC4=Cc5c(cc6c(=O)n(C)c(=O)nc-6n5C)C[C@]4(C)[C@H]3CC[C@]12C
4.5 µg/mL,7.4 µg/mL,CCCCCCCC[C@H]1CC[C@H]2[C@@H]3CCC4=Cc5c(cc6c(=O)n(C)c(=O)nc-6n5-c5ccc(OC)cc5)C[C@]4(C)[C@H]3CC[C@]12C
8.8 µg/mL,8.4 µg/mL,CCCCCCCC[C@H]1CC[C@H]2[C@@H]3CCC4=Cc5c(cc6c(=O)[nH]c(=O)nc-6n5C)C[C@]4(C)[C@H]3CC[C@]12C
2.7 µg/mL,4.4 µg/mL,CCCCCCCC[C@H]1CC[C@H]2[C@@H]3CCC4=Cc5c(cc6c(=O)[nH]c(=O)nc-6n5-c5cccc(C)c5)C[C@]4(C)[C@H]3CC[C@]12C
5.6 µg/mL,8.3 µg/mL,CCCCCCCC[C@H]1CC[C@H]2[C@@H]3CCC4=Cc5c(cc6c(=O)n(C)c(=O)nc-6n5-c5ccc(C)c(C)c5)C[C@]4(C)[C@H]3CC[C@]12C
14 µg/mL,14.2 µg/mL,CCCCCCCC[C@H]1CC[C@H]2[C@@H]3CCC4=Cc5c(cc6c(=O)n(C)c(=O)nc-6n5-c5ccc(Br)cc5)C[C@]4(C)[C@H]3CC[C@]12C
6.9 µg/mL,8.4 µg/mL,CCCCCCCC[C@H]1CC[C@H]2[C@@H]3CCC4=Cc5c(cc6c(=O)n(C)c(=O)nc-6n5-c5ccc(F)cc5)C[C@]4(C)[C@H]3CC[C@]12C
7.6 µg/mL,9.2 µg/mL,CCCCCCCC[C@H]1CC[C@H]2[C@@H]3CCC4=Cc5c(cc6c(=O)n(C)c(=O)nc-6n5-c5ccc(Cl)cc5)C[C@]4(C)[C@H]3CC[C@]12C

# The next lines start with the compound.
SMILES,IC50 (CCRF-HSB-2),IC50 (KB)
CCCCCCCC[C@H]1CC[C@H]2[C@@H]3CCC4=Cc5c(cc6c(=O)[nH]c(=O)nc-6n5-c5ccc(F)cc5)C[C@]4(C)[C@H]3CC[C@]12C,2.7 µg/mL,2.1 µg/mL
CCCCCCCC[C@H]1CC[C@H]2[C@@H]3CCC4=Cc5c(cc6c(=O)[nH]c(=O)nc-6n5CCCC)C[C@]4(C)[C@H]3CC[C@]12C,4.3 µg/mL,5.7 µg/mL
CCCCCCCC[C@H]1CC[C@H]2[C@@H]3CCC4=Cc5c(cc6c(=O)n(-c7ccccc7)c(=O)nc-6n5C)C[C@]4(C)[C@H]3CC[C@]12C,5.5 µg/mL,7.4 µg/mL
CCCCCCCC[C@H]1CC[C@H]2[C@@H]3CCC4=Cc5c(cc6c(=O)n(-c7ccccc7)c(=O)nc-6n5-c5ccc(C)c(C)c5)C[C@]4(C)[C@H]3CC[C@]12C,7.7 µg/mL,9.1 µg/mL
CCCCCCCC[C@H]1CC[C@H]2[C@@H]3CCC4=Cc5c(cc6c(=O)n(-c7ccccc7)c(=O)nc-6n5-c5ccccc5)C[C@]4(C)[C@H]3CC[C@]12C,2.4 µg/mL,1.9 µg/mL
CCCCCCCC[C@H]1CC[C@H]2[C@@H]3CCC4=Cc5c(cc6c(=O)n(-c7ccccc7)c(=O)nc-6n5-c5cccc(C)c5)C[C@]4(C)[C@H]3CC[C@]12C,5.4 µg/mL,8 µg/mL
CCCCCCCC[C@H]1CC[C@H]2[C@@H]3CCC4=Cc5c(cc6c(=O)n(C)c(=O)nc-6n5CCCC)C[C@]4(C)[C@H]3CC[C@]12C,10 µg/mL,7.5 µg/mL
CCCCCCCC[C@H]1CC[C@H]2[C@@H]3CCC4=Cc5c(cc6c(=O)[nH]c(=O)nc-6n5-c5ccc(Cl)cc5)C[C@]4(C)[C@H]3CC[C@]12C,2.7 µg/mL,1.8 µg/mL
CCCCCCCC[C@H]1CC[C@H]2[C@@H]3CCC4=Cc5c(cc6c(=O)n(-c7ccccc7)c(=O)nc-6n5-c5ccc(OC)cc5)C[C@]4(C)[C@H]3CC[C@]12C,7.5 µg/mL,8.7 µg/mL
CCCCCCCC[C@H]1CC[C@H]2[C@@H]3CCC4=Cc5c(cc6c(=O)n(C)c(=O)nc-6n5CC)C[C@]4(C)[C@H]3CC[C@]12C,> 100 µg/mL,> 100 µg/mL
CCCCCCCC[C@H]1CC[C@H]2[C@@H]3CCC4=Cc5c(cc6c(=O)n(-c7ccccc7)c(=O)nc-6n5-c5ccc(Cl)cc5)C[C@]4(C)[C@H]3CC[C@]12C,9 µg/mL,9.3 µg/mL
CCCCCCCC[C@H]1CC[C@H]2[C@@H]3CCC4=Cc5c(cc6c(=O)n(-c7ccccc7)c(=O)nc-6n5-c5ccc(F)cc5)C[C@]4(C)[C@H]3CC[C@]12C,5.5 µg/mL,8.4 µg/mL
CCCCCCCC[C@H]1CC[C@H]2[C@@H]3CCC4=Cc5c(cc6c(=O)[nH]c(=O)nc-6n5-c5ccc(OC)cc5)C[C@]4(C)[C@H]3CC[C@]12C,2.1 µg/mL,1.7 µg/mL
CCCCCCCC[C@H]1CC[C@H]2[C@@H]3CCC4=Cc5c(cc6c(=O)[nH]c(=O)nc-6n5CC)C[C@]4(C)[C@H]3CC[C@]12C,37.9 µg/mL,40.3 µg/mL
CCCCCCCC[C@H]1CC[C@H]2[C@@H]3CCC4=Cc5c(cc6c(=O)[nH]c(=O)nc-6n5-c5ccccc5)C[C@]4(C)[C@H]3CC[C@]12C,5.4 µg/mL,7.9 µg/mL
CCCCCCCC[C@H]1CC[C@H]2[C@@H]3CCC4=Cc5c(cc6c(=O)n(C)c(=O)nc-6n5-c5ccccc5)C[C@]4(C)[C@H]3CC[C@]12C,6.2 µg/mL,7.6 µg/mL
Nc1ccn([C@@H]2O[C@H](CO)[C@@H](O)[C@@H]2O)c(=O)n1 [CYTARABINE],,0.73 µg/mL
